# Source: patent US11065355B2, “Device for monitoring efficacy of a decontamination process comprising a bacteria cell and method of using” (priority 2017, dated 2021)
# System: M. terrae cells
# Experiment: PAA time course, cell suspension testing of M. terrae cell resistance to high-level disinfection
# Format: cell-based, Mycobacterium terrae ATCC 15755
# Conditions: for Log Population / Log reduction / M. terrae Population: 850 ppm PAA, 30° C., 21 days growth culture
# Description: Into a 50 ml polypropylene tube, pipet 0.85 ml of RAPICIDE Part A, 0.85 ml of RAPICIDE part B, and mix with 48.3 ml of distilled water. Vortex to mix thoroughly. Place tube in 30° C. water bath to equilibrate for at least 10 minutes before use.
# PAA Time course: Exposure to PAA for various contact time points at 30° C. at the minimum effective concentration of RAPICIDE PAA (850 ppm). 10 μl of M. terrae cell samples at a target concentration of at least 1×10^8 cfu/mL were added to a 1.5 mL […] each sample in a 30° C. water bath. At the end of each contact time, samples were neutralized by adding 600 μL of 3% sodium thiosulfate with 0.05% Tween 80 for 15 mins at 30° C. Samples were centrifuged for 10 mins at 14000 rpm at 4 C. The supernatant was decanted off and samples were resuspended in 1 ml of BBL buffer. Serial dilutions (1:10) were made of each sample and 1 mL of each dilution was plated on Middlebrook 7H10 agar with Middlebrook OADC enrichment. Plates were incubated at 37° C. for 14-21 days.
# The procedure of Example 1 was repeated using 21-days growth cells, with the M. terrae cells exposed to PAA instead of OPA.
smiles,measurement,setting,value
"CC(=O)OO [PAA, peracetic acid]",Log Population,exposure 1 seconds,10.2
same,Log reduction,exposure 1 seconds,0.0
same,M. terrae Population,exposure 1 seconds,1.53E+10 CFU
same,Log Population,exposure 15 seconds,9.5
same,Log reduction,exposure 15 seconds,0.7
same,M. terrae Population,exposure 15 seconds,3.45E+09 CFU
same,Log Population,exposure 30 seconds,8.1
same,Log reduction,exposure 30 seconds,2.1
same,M. terrae Population,exposure 30 seconds,1.40E+08 CFU
same,Log Population,exposure 60 seconds,7.3
same,Log reduction,exposure 60 seconds,2.9
same,M. terrae Population,exposure 60 seconds,2.00E+07 CFU
same,Log Population,exposure 90 seconds,0
same,Log reduction,exposure 90 seconds,10.2
same,M. terrae Population,exposure 90 seconds,1.00E+00 CFU
same,Log Population,exposure 120 seconds,0
same,Log reduction,exposure 120 seconds,10.2
same,M. terrae Population,exposure 120 seconds,1.00E+00 CFU
same,Log Population,exposure 150 seconds,0
same,Log reduction,exposure 150 seconds,10.2
same,M. terrae Population,exposure 150 seconds,1.00E+00 CFU
same,Log Population,exposure 180 seconds,0
same,Log reduction,exposure 180 seconds,10.2
same,M. terrae Population,exposure 180 seconds,1.00E+00 CFU
same,Log Population,exposure 210 seconds,0
same,Log reduction,exposure 210 seconds,10.2
same,M. terrae Population,exposure 210 seconds,1.00E+00 CFU
same,Log Population,exposure 240 seconds,0
same,Log reduction,exposure 240 seconds,10.2
same,M. terrae Population,exposure 240 seconds,1.00E+00 CFU
same,Log Population,exposure 270 seconds,0
same,Log reduction,exposure 270 seconds,10.2
same,M. terrae Population,exposure 270 seconds,1.00E+00 CFU
same,Log Population,exposure 300 seconds,0
same,Log reduction,exposure 300 seconds,10.2
same,M. terrae Population,exposure 300 seconds,1.00E+00 CFU
same,exposure to PAA for a 6 log reduction in M. terrae cells,"PAA at 30° C., 21-days growth cells",about 75 seconds
